Experiments:
Assay in all cases: combination Emax (second highest fraction inhibited in the dose matrix, 72 h); higher = more inhibition; extreme values may be limits of the assay
[1] = tested on: OSC-20 (Oral Cavity Carcinoma)
Method in brief: (§1)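 Bliss excess equals the observed combination effect minus the expected value EA + EB − EA·EB, where EA and EB are the effects of each agent alone. Combination Emax is the second-highest inhibition within the matrix. Inhibition was scaled from CellTiter-Glo 2.0 luminescence, with 0 set by vehicle wells and 1 by blank wells, after 72 hours of two-drug dosing of cells plated in 1536-well plates.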

[2] = tested on: KYSE-450 (Esophageal Squamous Cell Carcinoma)
Method in brief: as §1

[3] = tested on: HSC-4 (Oral Cavity Carcinoma)
Method in brief: as §1

ACHN (Kidney Carcinoma) = tested on: ACHN (Kidney Carcinoma)
Method in brief: as §1

[4] = tested on: MLMA (Other Blood Carcinomas)
Method in brief: as §1

TGW (Neuroblastoma) = tested on: TGW (Neuroblastoma)
Method in brief: as §1

[5] = tested on: HGC-27 (Gastric Carcinoma)
Method in brief: as §1

[6] = tested on: NCI-H358 (Lung Adenocarcinoma)
Method in brief: as §1

[7] = tested on: LU-65 (Non-Small Cell Lung Carcinoma)
Method in brief: as §1

[8] = tested on: NCI-H1915 (Non-Small Cell Lung Carcinoma)
Method in brief: as §1

[9] = tested on: SU8686 (Pancreatic Carcinoma)
Method in brief: as §1

[10] = tested on: AMO-1 (Plasma Cell Myeloma)
Method in brief: as §1

TK10 (Kidney Carcinoma) = tested on: TK10 (Kidney Carcinoma)
Method in brief: as §1

[11] = tested on: NUGC-3 (Gastric Carcinoma)
Method in brief: as §1

[12] = tested on: TE-1 (Esophageal Squamous Cell Carcinoma)
Method in brief: as §1

[13] = tested on: NCI-H727 (Other Solid Carcinomas)
Method in brief: as §1

[14] = tested on: Caov-4 (Ovarian Carcinoma)
Method in brief: as §1

[15] = tested on: OVCAR-4 (Ovarian Carcinoma)
Method in brief: as §1

[16] = tested on: Hs-766T (Pancreatic Carcinoma)
Method in brief: as §1

[17] = tested on: OE19 (Esophageal Adenocarcinoma)
Method in brief: as §1

SMILES	combination Emax [1]	combination Emax [2]	combination Emax [3]	combination Emax (ACHN (Kidney Carcinoma))	combination Emax [4]	combination Emax (TGW (Neuroblastoma))	combination Emax [5]	combination Emax [6]	combination Emax [7]	combination Emax [8]	combination Emax [9]	combination Emax [10]	combination Emax (TK10 (Kidney Carcinoma))	combination Emax [11]	combination Emax [12]	combination Emax [13]	combination Emax [14]	combination Emax [15]	combination Emax [16]	combination Emax [17]
NC1(C(=O)N[C@@H](CCO)c2ccc(Cl)cc2)CCN(c2ncnc3[nH]ccc23)CC1 [Capivasertib] + CCN(CCO)CCCOc1ccc2c(Nc3cc(CC(=O)Nc4cccc(F)c4)[nH]n3)ncnc2c1 [AZD2811] (first compound max 10 µM, 7x7, partner max 1 µM)	0.387	0.414	0.514	0.355	0.461	0.273	0.939	0.394	0.461	0.334	0.121	0.769	0.403	0.448	0.383	0.418	0.383	0.323	0.23	0.847
CS(=O)(=O)CCNCc1ccc(-c2ccc3ncnc(Nc4ccc(OCc5cccc(F)c5)c(Cl)c4)c3c2)o1 [Lapatinib] + C[C@@H](Oc1cc(-c2cnn(C3CCNCC3)c2)cnc1N)c1c(Cl)ccc(F)c1Cl [Crizotinib] (first compound max 10 µM, 7x7, partner max 10 µM)	0.795	0.869	0.465	0.781	0.899	0.776	0.983	0.926	0.894	0.65	0.16	0.958	0.656	0.96	0.919	0.942	0.849	0.727	0.319	1
CC1(C)CCC(CN2CCN(c3ccc(C(=O)NS(=O)(=O)c4ccc(NCC5CCOCC5)c([N+](=O)[O-])c4)c(Oc4cnc5[nH]ccc5c4)c3)CC2)=C(c2ccc(Cl)cc2)C1 [Venetoclax] + Cc1cc2ncnn2cc1Nc1ncc2c(n1)n(C1CCOCC1)c(=O)n2C [AZD7648] (first compound max 1 µM, 7x7, partner max 10 µM)	0.205	0.14	0.11	0.725	0.86	0.393	0.485	0.293	0.378	0.641	0.152	0.73	0.281	0.409	0.0373	0.25	0.263	0.19	0.372	0.281
CC1(C)CCC(CN2CCN(c3ccc(C(=O)NS(=O)(=O)c4ccc(NCC5CCOCC5)c([N+](=O)[O-])c4)c(Oc4cnc5[nH]ccc5c4)c3)CC2)=C(c2ccc(Cl)cc2)C1 [Venetoclax] + C1CN(CCC1(C(=O)N[C@@H](CCO)C2=CC=C(C=C2)Cl)N)C3=NC=NC4=C3C=CN4 [Capivasertib] (first compound max 1 µM, 7x7, partner max 3 µM)	0.265	0.197	0.306	0.81	0.866	0.465	0.814	0.33	0.462	0.141	0.059	0.76	0.339	0.227	0.162	0.482	0.282	0.1	0.225	0.306
CC(=O)Nc1cccc(-n2c(=O)n(C3CC3)c(=O)c3c(Nc4ccc(I)cc4F)n(C)c(=O)c(C)c32)c1 [Trametinib] + Cc1nc(-c2cn3c(n2)-c2ccc(-c4cnn(C(C)(C)C(N)=O)c4)cc2OCC3)n(C(C)C)n1 [Taselisib] (first compound max 1 µM, 7x7, partner max 10 µM)	0.669	0.753	0.686	0.643	0.661	0.694	0.924	0.961	0.985	1	0.481	0.812	0.769	0.865	0.75	0.988	0.76	0.518	0.773	0.97
NC1(C(=O)N[C@@H](CCO)c2ccc(Cl)cc2)CCN(c2ncnc3[nH]ccc23)CC1 [Capivasertib] + CC(=O)c1c(C)c2cnc(Nc3ccc(N4CCNCC4)cn3)nc2n(C2CCCC2)c1=O [Palbociclib] (first compound max 10 µM, 7x7, partner max 10 µM)	0.279	0.351	0.423	0.658	0.515	0.378	0.874	0.436	0.448	0.491	0.07	0.743	0.516	0.592	0.204	0.507	0.377	0.168	0.36	0.523
Cc1c2c(nn1C)CSCc1cc(n(C)n1)CSc1cc(c3ccccc3c1)OCCCc1c(C(=O)O)n(C)c3c-2c(Cl)ccc13 [AZD5991] + CN(C)CCCOc1ccc(-c2ccc3ncc4c(c3c2)n(C2CCOCC2)c(=O)n4C)cn1 [AZD0156] (first compound max 1 µM, 7x7, partner max 1 µM)	0.256	0.251	0.197	0.179	0.397	0.293	0.51	0.308	0.366	0.439	0.16	1	0.272	0.369	0.635	0.289	0.511	0.279	0.372	0.573
Cc1c2c(nn1C)CSCc1cc(n(C)n1)CSc1cc(c3ccccc3c1)OCCCc1c(C(=O)O)n(C)c3c-2c(Cl)ccc13 [AZD5991] + Cc1cc2ncnn2cc1Nc1ncc2c(n1)n(C1CCOCC1)c(=O)n2C [AZD7648] (first compound max 1 µM, 7x7, partner max 10 µM)	0.257	0.268	0.171	0.246	0.439	0.339	0.603	0.331	0.397	0.3	0.127	1	0.385	0.428	0.599	0.277	0.57	0.255	0.398	0.424
CC1(C)CCC(CN2CCN(c3ccc(C(=O)NS(=O)(=O)c4ccc(NCC5CCOCC5)c([N+](=O)[O-])c4)c(Oc4cnc5[nH]ccc5c4)c3)CC2)=C(c2ccc(Cl)cc2)C1 [Venetoclax] + Cn1cnc2c(F)c(Nc3ccc(Br)cc3Cl)c(C(=O)NOCCO)cc21 [Selumetinib] (first compound max 1 µM, 7x7, partner max 3 µM)	0.172	0.109	0.243	0.688	0.93	0.337	0.142	0.343	0.538	0.423	0.135	0.806	0.322	0.392	0.245	0.601	0.364	0.209	0.502	0.182
COc1cccc(OCCCN)c1-c1cc(Nc2cnc(C#N)cn2)n[nH]1 [Prexasertib] + O=C(c1cc(Cc2n[nH]c(=O)c3ccccc23)ccc1F)N1CCN(C(=O)C2CC2)CC1 [Olaparib] (first compound max 1 µM, 7x7, partner max 10 µM)	0.648	0.744	0.674	0.906	0.954	0.915	0.91	0.85	0.788	0.665	0.527	0.982	0.625	0.726	0.621	0.389	0.976	0.743	0.658	0.648
CC1(C)CCC(CN2CCN(c3ccc(C(=O)NS(=O)(=O)c4ccc(NCC5CCOCC5)c([N+](=O)[O-])c4)c(Oc4cnc5[nH]ccc5c4)c3)CC2)=C(c2ccc(Cl)cc2)C1 [Venetoclax] + COc1cc(Nc2ncc3c(n2)-c2ccc(Cl)cc2C(c2c(F)cccc2OC)=NC3)ccc1C(=O)O [Alisertib] (first compound max 1 µM, 7x7, partner max 10 µM)	0.345	0.437	0.28	0.698	0.866	0.972	0.919	0.442	0.314	0.455	0.117	0.868	0.35	0.436	0.635	0.326	0.447	0.344	0.393	0.785
CN(C)CCCOc1ccc(-c2ccc3ncc4c(c3c2)n(C2CCOCC2)c(=O)n4C)cn1 [AZD0156] + C[C@@H]1COCCN1C2=NC(=NC(=C2)C3(CC3)[S@](=N)(=O)C)C4=C5C=CNC5=NC=C4 [AZD6738] (first compound max 1 µM, 7x7, partner max 10 µM)	0.334	0.649	0.685	0.883	0.79	0.833	0.862	0.656	0.76	0.522	0.365	0.908	0.695	0.727	0.462	0.635	0.744	0.697	0.607	0.869

Source: the supplement of paper PMC11061612
